Key:
Experiment in all cases: GRmax, 72 h; higher = less effect;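 note: breast cell lines in 384-well plates, nine doses across a 10^4 range, Dye Drop imaging of viable cells vs DMSO and time-zero plates, GR 0 means no net growth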
MDAMB468 = test system: MDAMB468
PDXHCI002 = test system: PDXHCI002
CAMA1 = test system: CAMA1
T47D = test system: T47D
SUM1315 = test system: SUM1315
CAL51 = test system: CAL51
UACC812 = test system: UACC812
AU565 = test system: AU565
ZR7530 = test system: ZR7530
HCC1395 = test system: HCC1395
MDAMB436 = test system: MDAMB436

Row | SMILES | GRmax, 72 h (MDAMB468) [GR] | GRmax, 72 h (PDXHCI002) [GR] | GRmax, 72 h (CAMA1) [GR] | GRmax, 72 h (T47D) [GR] | GRmax, 72 h (SUM1315) [GR] | GRmax, 72 h (CAL51) [GR] | GRmax, 72 h (UACC812) [GR] | GRmax, 72 h (AU565) [GR] | GRmax, 72 h (ZR7530) [GR] | GRmax, 72 h (HCC1395) [GR] | GRmax, 72 h (MDAMB436) [GR]
1 | COc1ccc2c(c1)[C@]1(C[C@H]1c1ccc3c(/C=C/c4ccc(CN5C[C@@H](C)O[C@@H](C)C5)cc4)n[nH]c3c1)C(=O)N2 | -0.38 | 0.107 | -0.0117 | -0.0071 | -0.232 | 0.0084 | -0.135 | -0.165 | 0.174 | -0.178 | -0.226
2 | COc1cccc(OCCCN)c1-c1cc(Nc2cnc(C#N)cn2)n[nH]1 | 0.6 | 0.705 | 0.084 | 0.428 | -0.419 | 0.0443 | 0.528 | 0.0394 | 0.561 | -0.491 | 0.0078
3 | CC(=O)Nc1cccc(-n2c(=O)n(C3CC3)c(=O)c3c(Nc4ccc(I)cc4F)n(C)c(=O)c(C)c32)c1 (max 1 µM) | 0.407 | 0.642 | 0.553 | 0.58 | 0.133 | 0.706 | -0.119 | 1.01 | 0.405 | 0.45 | 0.557
4 | CCc1cnn2c(NCc3ccc[n+]([O-])c3)cc(N3CCCC[C@H]3CCO)nc12 (max 1 µM) | -0.413 | -0.361 | -0.485 | -0.211 | -0.667 | -0.358 | -0.942 | -0.752 | -0.714 | -0.497 | -0.144
5 | CC(=O)c1c(C)c2cnc(Nc3ccc(N4CCNCC4)cn3)nc2n(C2CCCC2)c1=O (max 3.162 µM) | 1.05 | 0.277 | 0.282 | 0.117 | 0.3 | 0.361 | -0.142 | 0.177 | 0.266 | 0.348 | 1.06
6 | CCc1cncnc1N1CCN(Cc2nc3ccc(C(F)(F)F)cc3[nH]2)CC1 (max 10 µM) | 0.0813 | 0.873 | 0.655 | 0.366 | 0.595 | 0.734 | -0.22 | 0.476 | 0.113 | 0.659 | 0.194
7 | CCCCOc1c(C(=O)c2c(F)cc(C)cc2F)c[nH]c2nncc1-2 (max 10 µM) | -0.112 | 0.217 | -0.0904 | 0.0035 | -0.296 | 0.28 | -0.394 | -0.158 | 0.212 | -0.214 | 0.264
8 | CCN1CCN(Cc2ccc(Nc3ncc(F)c(-c4cc(F)c5nc(C)n(C(C)C)c5c4)n3)nc2)CC1 (max 10 µM) | -0.288 | -0.677 | 0.222 | -0.0412 | -0.144 | -0.464 | -0.603 | -0.321 | 0.125 | -0.52 | -0.333
9 | CNc1nc(-c2ccc3c(N)n[nH]c3c2)cc(N2C[C@@H](C(=O)NC3CCCCC3)CC[C@H]2C)n1 (max 10 µM) | 0.531 | 0.867 | 0.716 | 0.164 | 0.421 | 0.794 | 0.166 | 0.391 | 0.348 | 0.518 | 0.811
10 | CO[C@@H](C)Cn1c(=O)n(C)c2cnc3ccc(-c4cncc(C(C)(C)O)c4)cc3c21 (max 10 µM) | -0.211 | -0.0949 | -0.458 | -0.289 | -0.216 | -0.159 | -0.663 | -0.533 | -0.36 | -0.0122 | 0.323
11 | Cc1nn(C)c(COc2ccc(N3CCN(S(=O)(=O)N(C)C)CC3)cc2)c1-c1cccc2c(CCCOc3cccc4ccccc34)c(C(=O)O)n(CCN3CCOCC3)c12 (max 10 µM) | 0.93 | 0.981 | 0.876 | 0.575 | 0.74 | 0.992 | 0.991 | 0.611 | 0.576 | 0.859 | 0.873
12 | CN(C)CC[C@H](CSc1ccccc1)Nc1ccc(S(=O)(=O)NC(=O)c2ccc(N3CCN(Cc4ccccc4-c4ccc(Cl)cc4)CC3)cc2)cc1[N+](=O)[O-] [ABT-737] (max 10 µM) | 0.142 | 0.146 | 0.864 | 0.589 | 0.306 | 0.876 | 0.329 | 0.261 | 0.552 | 0.861 | 0.815
13 | C=CCn1c(=O)c2cnc(Nc3ccc(N4CCN(C)CC4)cc3)nc2n1-c1cccc(C(C)(C)O)n1 [AZD1775] (max 10 µM) | -0.492 | -0.347 | -0.206 | 0.162 | -0.747 | -0.188 | -0.598 | -0.485 | -0.501 | -0.587 | -0.26
14 | CNC(=O)c1cccc(-c2ccc3c(N4CCOC[C@@H]4C)nc(N4CCOC[C@@H]4C)nc3n2)c1 [AZD2014] (max 10 µM) | 0.23 | 0.489 | -0.0933 | -0.0708 | 0.0994 | 0.201 | -0.585 | -0.0212 | -0.24 | 0.274 | 0.519
15 | NC1(C(=O)N[C@@H](CCO)c2ccc(Cl)cc2)CCN(c2nc[nH]c3nccc2-3)CC1 [AZD5363] (max 10 µM) | 0.545 | 1.08 | -0.124 | 0.179 | 0.694 | 0.565 | 0.485 | 0.373 | 0.187 | 0.0739 | 0.728
16 | C[C@@H]1COCCN1c1cc(C2([S@](C)(=N)=O)CC2)nc(-c2cc[nH]c3nccc2-3)n1 [AZD6738] (max 10 µM) | 0.529 | 0.734 | 0.25 | 0.745 | -0.169 | 0.0335 | 0.305 | 0.312 | 0.61 | -0.284 | 0.363
17 | NC(=O)Nc1cc(-c2cccc(F)c2)sc1C(=O)N[C@H]1CCCNC1 [AZD7762] (max 10 µM) | -0.586 | -0.582 | -0.0865 | -0.0573 | -0.653 | -0.519 | -0.8 | -0.597 | 0.0949 | -0.69 | -0.281

Source: the supplement of paper PMC9663587
